The melting point is the temperature of the solid-liquid transition. By Ki is commonly meant a dissociation constant, usually derived from enzyme kinetics or from competition with a known ligand.

Structures can show the parent of a compound that is named as a salt.

Experimental findings from patent US8637501B2, “Azinone-substituted azepino[b]indole and pyrido-pyrrolo-azepine MCH-1 antagonists, methods of making, and use thereof” (Albany Molecular Research, Inc., priority 2009, dated 2014) are described below.

One data set concerns the target human MCH-1 receptor (Homo sapiens (Human), UniProt Q99705). Briefly: Binding Assay for Human Melanin-Concentrating Hormone (MCH-1) Receptor. The note with it: radioligand displacement, membranes from CHO-K1 cells expressing human MCH-1 receptor; Ki from IC50 by Cheng Prusoff equation; read-out: MCH1 Ki. The procedure:
Binding Assay for Human Melanin-Concentrating Hormone (MCH-1) Receptor
Evaluation of the affinity of compounds for the human MCH-1 receptor was accomplished using 4-(3,4,5-tritritiumbenzyloxy)-1-(1-(2-(pyrrolidin-1-yl)ethyl)-1H-indazol-5-yl)pyridin-2(1H)-one and membranes prepared from stable CHO-K1 cells expressing the human MCH-1 receptor obtained from Euroscreen (Batch 1138). Cell membrane homogenates (8.92 μg protein) were incubated for 60 min at 25° C. with 1.4 nM of the [^3H]-labeled compound in the absence or presence of the test compound in 50 mM Tris-HCl buffer, pH 7.4. Nonspecific binding was determined in the presence of 50 μM 1-(5-(4-cyanophenyl)bicyclo[3.1.0]hexan-2-yl)-3-(4-fluoro-3-(trifluoromethyl)phenyl)-1-(3-(4-methylpiperazin-1-yl)propyl)urea. Following incubation, the samples were filtered rapidly under vacuum through Skatron 11731 filters, pre-soaked in 0.5% polyethylenimine, and washed with ice-cold 50 mM Tris-HCl buffer, pH 7.4, (wash setting 9,9,0) using a Skatron cell harvester. The filters were counted for radioactivity in a liquid scintillation counter (Tri-Carb 2100TR, Packard) using a scintillation cocktail (Ultima Gold MV, Perkin Elmer).
The results are expressed as a percent inhibition of the control radioligand specific binding. The IC50 value (concentration causing a half-maximal inhibition of control specific binding) and Hill coefficient (nH) were determined by non-linear regression analysis of the competition curve using Hill equation curve fitting. The inhibition constant (Ki) was calculated from the Cheng Prusoff equation: (Ki=IC50/(1+(L/KD)), where L=concentration of radioligand in the assay, and KD=affinity of the radioligand for the receptor.
For orientation: Displacement assays read how much labelled ligand stays bound in the presence of the test substance.

human MCH-1 receptor, sequence (Q99705 whole entry): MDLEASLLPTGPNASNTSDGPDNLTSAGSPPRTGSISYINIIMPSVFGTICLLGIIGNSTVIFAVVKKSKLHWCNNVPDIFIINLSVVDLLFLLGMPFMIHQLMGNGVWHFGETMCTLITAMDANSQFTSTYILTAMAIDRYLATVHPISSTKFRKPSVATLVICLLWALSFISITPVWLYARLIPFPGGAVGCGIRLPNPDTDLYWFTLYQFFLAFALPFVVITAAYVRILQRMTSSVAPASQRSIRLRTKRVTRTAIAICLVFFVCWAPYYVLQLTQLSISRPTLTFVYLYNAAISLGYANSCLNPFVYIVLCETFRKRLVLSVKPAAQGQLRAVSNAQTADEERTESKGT

In turn, `Cn1c2c(c3ccc(-n4ccc(-c5ccc(C(F)(F)F)cn5)cc4=O)cc31)CCNCC2` (as salt: hydrochloride) [Example 3, 1-(6-Methyl-1,2,3,4,5,6-hexahydroazepino[4,5-b]indol-8-yl)-4-(5-(trifluoromethyl)pyridin-2-yl)pyridin-2(1H)-one dihydrochloride] returned a melting point of 310 to 312 °C. In turn, `Cn1c2c(c3ccc(-n4ccc(OCc5ccc(C(F)(F)F)nc5)cc4=O)cc31)CCNCC2` (as salt: hydrochloride) [Example 5, 1-(6-Methyl-1,2,3,4,5,6-hexahydroazepino[4,5-b]indol-8-yl)-4-((6-(trifluoromethyl)pyridin-3-yl)methoxy)pyridin-2(1H)-one dihydrochloride] displayed a melting point of 296 to 300 °C.

As to `O=c1cc(-c2ccc(C(F)(F)F)cn2)ccn1-c1ccc2c3c([nH]c2c1)CCNCC3` (as salt: hydrochloride) [Example 9, 1-(1,2,3,4,5,6-Hexahydroazepino[4,5-b]indol-8-yl)-4-(5-(trifluoromethyl)pyridin-2-yl)pyridin-2(1H)-one dihydrochloride], the melting point was in the range of 288 to 290 °C. Compound `Cn1c2c(c3ccc(-n4ncc(OCc5ccc(F)cn5)cc4=O)cc31)CCNCC2` (as salt: hydrochloride) [Example 10, 5-((5-Fluoropyridin-2-yl)methoxy)-2-(6-methyl-1,2,3,4,5,6-hexahydroazepino[4,5-b]indol-8-yl)pyridazin-3(2H)-one dihydrochloride] gave a melting point of 250 to 254 °C.

On to `Cn1c2c(c3ccc(-n4ccc(-c5ccc(C(F)(F)F)cc5)cc4=O)nc31)CNCCC2` [Example 95, 1-(10-methyl-5,6,7,8,9,10-hexahydropyrido[3′,2′:4,5]pyrrolo[3,2-c]azepin-2-yl)-4-(4-(trifluoromethyl)phenyl)pyridin-2(1H)-one hydrochloride], for which the inhibition constant Ki on human MCH-1 receptor is 7.8 nM.

Turning to `Cn1c2c(c3ccc(-n4ccc(OCc5ccc(Cl)cc5F)cc4=O)nc31)CNCCC2` [Example 96, 4-(4-Chloro-2-fluorobenzyloxy)-1-(10-methyl-5,6,7,8,9,10-hexahydropyrido[3′,2′:4,5]pyrrolo[3,2-c]azepin-2-yl)pyridin-2(1H)-one hydrochloride], the inhibition constant Ki on human MCH-1 receptor was 9.2 nM. Turning to `Cn1c2c(c3ccc(N4CCN(CCc5ccc(F)cc5)CC4=O)cc31)CCNCC2` [Example 97, 4-(4-Fluorophenethyl)-1-(6-methyl-1,2,3,4,5,6-hexahydroazepino[4,5-b]indol-8-yl)piperazin-2-one dihydrochloride], the Ki on human MCH-1 receptor came out at 13 nM.

`CN1CCc2c(n(C)c3cc(N4CCN(CCc5ccc(F)cc5)CC4=O)ccc23)CC1` [Example 98, 1-(3,6-Dimethyl-1,2,3,4,5,6-hexahydroazepino[4,5-b]indol-8-yl)-4-(4-fluorophenethyl)piperazin-2-one dihydrochloride]: at human MCH-1 receptor, the Ki came to 13 nM. Take `CCN1CCc2c(n(C)c3cc(N4CCN(CCc5ccc(F)cc5)CC4=O)ccc23)CC1` [Example 99, 1-(3-Ethyl-6-methyl-1,2,3,4,5,6-hexahydroazepino[4,5-b]indol-8-yl)-4-(4-fluorophenethyl)piperazin-2-one dihydrochloride]: on human MCH-1 receptor, the Ki was 17 nM. Still for that read-out and setting: next, `Cn1c2c(c3ccc(-n4ccc(OCc5ccc(Cl)cc5)cc4=O)cc31)CCNCC2` [Example 100, 4-(4-Chlorobenzyloxy)-1-(6-methyl-1,2,3,4,5,6-hexahydroazepino[4,5-b]indol-8-yl)pyridin-2(1H)-one hydrochloride]: 10 nM. Still for that read-out and setting: next, `Cn1c2c(c3ccc(-n4ccc(CCc5ccccc5)nc4=O)cc31)CCNCC2` [Example 101, 1-(6-Methyl-1,2,3,4,5,6-hexahydroazepino[4,5-b]indol-8-yl)-4-phenethylpyrimidin-2(1H)-one hydrochloride]: 9.9 nM; `Cn1c2c(c3ccc(-n4ccc(OCc5ccc(F)cc5)cc4=O)cc31)CNCCC2` [Example 103, 4-(4-Fluorobenzyloxy)-1-(6-methyl-1,2,3,4,5,6-hexahydroazepino[4,3-b]indol-8-yl)pyridin-2(1H)-one hydrochloride]: 6 nM. Take `Cn1c2c(c3ccc(-n4ccc(OCc5ccc(F)cn5)cc4=O)cc31)C(=O)NCCC2` [Example 104, 8-(4-((5-Fluoropyridin-2-yl)methoxy)-2-oxopyridin-1(2H)-yl)-6-methyl-2,3,4,5-tetrahydroazepino[4,3-b]indol-1(6H)-one]: the inhibition constant (Ki) at human MCH-1 receptor is 149 nM. On to `Cn1c2c(c3ccc(-n4ccc(OCc5ccc(Cl)cc5)cc4=O)cc31)CNCCC2` [Example 105, 4-(4-Chlorobenzyloxy)-1-(6-methyl-1,2,3,4,5,6-hexahydroazepino[4,3-b]indol-8-yl)pyridin-2(1H)-one hydrochloride], for which the Ki at human MCH-1 receptor is 7.6 nM. As to `Cn1c2c(c3ccc(-n4ccc(CCc5ccccc5)nc4=O)cc31)CNCCC2` [Example 107, 1-(6-Methyl-1,2,3,4,5,6-hexahydroazepino[4,3-b]indol-8-yl)-4-phenethylpyrimidin-2(1H)-one hydrochloride], on human MCH-1 receptor, the inhibitory constant (Ki) amounted to 9.7 nM.

Consider `Cn1c2c(c3ccc(-n4ccc(-c5ccc(C(F)(F)F)nc5)nc4=O)cc31)CNCCC2` [Example 108, 1-(6-Methyl-1,2,3,4,5,6-hexahydroazepino[4,3-b]indol-8-yl)-4-(6-(trifluoromethyl)pyridin-3-yl)pyrimidin-2(1H)-one hydrochloride], for which the Ki on human MCH-1 receptor amounted to 60 nM.

Take `Cn1c2c(c3ccc(-n4ccc(OCc5ccc(Cl)cc5)cc4=O)nc31)CCNCC2` [Example 109, 4-(4-Chlorobenzyloxy)-1-(10-methyl-5,6,7,8,9,10-hexahydropyrido[3′,2′:4,5]pyrrolo[2,3-d]azepin-2-yl)pyridin-2(1H)-one hydrochloride]: the Ki at human MCH-1 receptor turned out to be 9.6 nM. Regarding `Cn1c2c(c3ccc(-n4ccc(OCc5ccc(F)cc5)cc4=O)nc31)CCNCC2` [Example 110, 4-(4-Fluorobenzyloxy)-1-(10-methyl-5,6,7,8,9,10-hexahydropyrido[3′,2′:4,5]pyrrolo[2,3-d]azepin-2-yl)pyridin-2(1H)-one hydrochloride], the Ki at human MCH-1 receptor is 12 nM. With `Cn1c2c(c3ccc(-n4ccc(OCc5ncc(F)cc5F)cc4=O)nc31)CCNCC2` [Example 111, 4-((3,5-Difluoropyridin-2-yl)methoxy)-1-(10-methyl-5,6,7,8,9,10-hexahydropyrido[3′,2′:4,5]pyrrolo[2,3-d]azepin-2-yl)pyridin-2(1H)-one hydrochloride], the inhibitory constant (Ki) at human MCH-1 receptor is 71 nM.

As for `Cn1c2c(c3ccc(-n4ccc(OCc5ccc(F)cc5)cc4=O)nc31)CNCCC2` [Example 112, 4-(4-Fluorobenzyloxy)-1-(10-methyl-5,6,7,8,9,10-hexahydropyrido[3′,2′:4,5]pyrrolo[3,2-c]azepin-2-yl)pyridin-2(1H)-one hydrochloride], the inhibitory constant (Ki) on human MCH-1 receptor is 8.9 nM.

On to `Cn1c2c(c3ccc(-n4ccc(OCc5ccc(Cl)cc5)cc4=O)nc31)CNCCC2` [Example 113, 4-(4-Chlorobenzyloxy)-1-(10-methyl-5,6,7,8,9,10-hexahydropyrido[3′,2′:4,5]pyrrolo[3,2-c]azepin-2-yl)pyridin-2(1H)-one hydrochloride], for which the inhibition constant (Ki) at human MCH-1 receptor was 5.9 nM. Take `Cn1c2c(c3ccc(-n4ccc(OCc5ncc(F)cc5F)cc4=O)nc31)CNCCC2` [Example 114, 4-((3,5-Difluoropyridin-2-yl)methoxy)-1-(10-methyl-5,6,7,8,9,10-hexahydropyrido[3′,2′:4,5]pyrrolo[3,2-c]azepin-2-yl)pyridin-2(1H)-one hydrochloride]: the Ki at human MCH-1 receptor is 44 nM.
